Measurements: ChEMBL document CHEMBL5338752, “Carbamate JNK3 Inhibitors Show Promise as Effective Treatments for Alzheimer's Disease: In Vivo Studies on Mouse Models” (J Med Chem, 2023)
The source made the active and inactive calls. No cut-off for these calls is given here.

How the values were obtained:
[1] = AUC in sixteen hrs fasted Sprague-Dawley rat at 1 mg/kg, iv measured upto 24 hrs by LC-MS/MS analysis; assay type: ADME, organism-based; set-up: time < 24 hrs, dose 1 mg/kg, route iv; details: in vivo
[2] = Cmax in sixteen hrs fasted Sprague-Dawley rat at 1 mg/kg, iv measured upto 24 hrs by LC-MS/MS analysis; assay type: ADME, organism-based; set-up: dose 1 mg/kg, time < 24 hrs, route iv; details: in vivo
[3] = AUC in sixteen hrs fasted Sprague-Dawley rat at 3 mg/kg, po measured upto 24 hrs by LC-MS/MS analysis; assay type: ADME, organism-based; set-up: time < 24 hrs, dose 3 mg/kg, route po; details: in vivo
[4] = test system: Neuron; test: Neuroprotective activity against rat neuron cells assessed as inhibition of Abeta(1-42)-induced cytotoxicity by measuring increase in cell viability at 20 uM incubated for 24 hrs by MTT assay relative to control; assay type: functional
[5] = target: Mitogen-activated protein kinase 10 (Rattus norvegicus) (UniProt P49187); test: Inhibition of A-beta (1 to 42) induced JNK3 activation in rat cortex neuron cells assessed as reduction in c-Jun phosphorylation levels at 10 to 20 uM incubated for 24 hrs in presence of A-beta (1 to 42) by Western blot analysis; assay type: cell-based; details: dose 10-20 µM
[6] = target: Mitogen-activated protein kinase 10 (Homo sapiens, UniProt P53779); test: Inhibition of JNK3 (unknown origin) using ATF2 as substrate incubated for 40 mins in presence of [gamma33P]ATP by scintillation counting analysis
[7] = test system: Neuron; test: Inhibition of apoptosis in rat cortex neuron cells assessed as prevention of A-beta (1 to 42) induced cleaved PARP formation at 10 to 20 uM measured after 24 hrs by Western blot analysis; assay type: functional, cell-based; details: dose 10-20 µM
[8] = test system: Neuron; test: Neuroprotective activity against rat neuron cells assessed as inhibition of Abeta(1-42)-induced cytotoxicity by measuring increase in cell viability at 20 uM incubated for 48 hrs by MTT assay relative to control; assay type: functional
[9] = target: Mitogen-activated protein kinase 8 (Homo sapiens, UniProt P45983); test: Inhibition of JNK1 (unknown origin) using ATF2 as substrate incubated for 40 mins in presence of [gamma33P]ATP by scintillation counting analysis
[10] = target: Mitogen-activated protein kinase 10 (Rattus norvegicus) (UniProt P49187); test: Inhibition of anisomycin induced JNK3 activation in rat cortex neuron cells assessed as inhibition of APP phosphorylation at 10 to 20 uM preincubated for 90 mins followed by anisomycin addition and measured after 40 mins by Western blot analysis; assay type: cell-based; details: dose 10-20 µM
[11] = target: Mitogen-activated protein kinase 9 (Homo sapiens, UniProt P45984); test: Inhibition of JNK2 (unknown origin) using ATF2 as substrate incubated for 40 mins in presence of [gamma33P]ATP by scintillation counting analysis
[12] = target: Mitogen-activated protein kinase 10 (Rattus norvegicus) (UniProt P49187); test: Inhibition of anisomycin induced JNK3 activation in rat cortex neuron cells assessed as reduction in Jun phosphorylation levels at 10 to 20 uM preincubated for 90 mins followed by anisomycin addition and measured after 40 mins by Western blot analysis; assay type: cell-based; details: dose 10-20 µM, time 130.0 min
[13] = Effective permeability of compound by […] method; assay type: ADME; details: read-out: Peff
[14] = Cmax in sixteen hrs fasted Sprague-Dawley rat at 3 mg/kg, po measured upto 24 hrs by LC-MS/MS analysis; assay type: ADME, organism-based; set-up: time < 24 hrs, dose 3 mg/kg, route po; details: in vivo
[15] = test system: Neuron; test: Inhibition of apoptosis in rat cortex neuron cells assessed as prevention of A-beta (1 to 42) induced cleaved caspase-3 formation at 10 to 20 uM measured after 24 hrs by Western blot analysis; assay type: functional, cell-based; details: dose 10-20 µM
[16] = test system: Mus musculus; test: Anti-alzheimer activity against APP/PS1 dE9 double transgenic mouse model assessed as time spent in target zone at 30 mg/kg, po administered daily for 2 months and measured after 74 days by Morris water maze test (reference value: 10.56+/-1.59 %); assay type: functional; details: time 74 day
[17] = AUClast in sixteen hrs fasted Sprague-Dawley rat at 3 mg/kg, po measured upto 24 hrs by LC-MS/MS analysis; assay type: ADME, organism-based; set-up: dose 3 mg/kg, time < 24 hrs, route po; details: in vivo
[18] = test system: Mus musculus; test: Anti-alzheimer activity against APP/PS1 dE9 double transgenic mouse model assessed as time spent in platform quadrant at 30 mg/kg, po administered daily for 2 months and measured after 74 days by Morris water maze test (reference value: 14.40+/-1.60 %); assay type: functional; details: time 74 day
[19] = Half life in sixteen hrs fasted Sprague-Dawley rat at 3 mg/kg, po measured upto 24 hrs by LC-MS/MS analysis; assay type: ADME, organism-based; details: in vivo
[20] = Apparent permeability of the compound across basolateral side to apical side in human Caco-2 cells; assay type: ADME, cell-based
[21] = Apparent permeability of the compound across apical side to basolateral side in human Caco-2 cells; assay type: ADME, cell-based
[22] = test system: Mus musculus; test: Anti-alzheimer activity against APP/PS1 dE9 double transgenic mouse model assessed as time spent in platform quadrant at 60 mg/kg, po administered daily for 2 months and measured after 74 days by Morris water maze test (reference value: 14.40+/-1.60 %); assay type: functional; details: time 74 day
[23] = Tmax in sixteen hrs fasted Sprague-Dawley rat at 3 mg/kg, po measured upto 24 hrs by LC-MS/MS analysis; assay type: ADME, organism-based; details: in vivo
[24] = test system: Mus musculus; test: Anti-alzheimer activity against APP/PS1 dE9 double transgenic mouse model assessed as spontaneous alteration at 60 mg/kg, po administered daily for 2 months and measured after 57 days by Y-maze test (reference value: 45.69+/-2.33%); assay type: functional; details: time 57 day
[25] = test system: Mus musculus; test: Anti-alzheimer activity against APP/PS1 dE9 double transgenic mouse model assessed as time spent in target zone at 60 mg/kg, po administered daily for 2 months and measured after 74 days by Morris water maze test (reference value: 10.56+/-1.59 %); assay type: functional; details: time 74 day
[26] = Efflux ratio of apparent permeability across basolateral to apical side to apical to basolateral side in human Caco-2 cells; assay type: ADME, cell-based
[27] = test system: Mus musculus; test: Anti-alzheimer activity against APP/PS1 dE9 double transgenic mouse model assessed as escape latency time at 30 mg/kg, po administered daily for 2 months and measured after 60 days by Passive avoidance test (reference value: 55.3+/-8.2 sec); assay type: functional; details: time 60 day
[28] = test system: Mus musculus; test: Anti-alzheimer activity against APP/PS1 dE9 double transgenic mouse model assessed as spontaneous alteration at 30 mg/kg, po administered daily for 2 months and measured after 57 days by Y-maze test (reference value: 45.69+/-2.33%); assay type: functional; details: time 57 day
[29] = test system: Mus musculus; test: Anti-alzheimer activity against APP/PS1 dE9 double transgenic mouse model assessed as escape latency time at 60 mg/kg, po administered daily for 2 months and measured after 60 days by Passive avoidance test (reference value: 55.3+/-8.2 sec); assay type: functional; details: time 60 day

Mitogen-activated protein kinase 9, sequence (P45984 whole entry): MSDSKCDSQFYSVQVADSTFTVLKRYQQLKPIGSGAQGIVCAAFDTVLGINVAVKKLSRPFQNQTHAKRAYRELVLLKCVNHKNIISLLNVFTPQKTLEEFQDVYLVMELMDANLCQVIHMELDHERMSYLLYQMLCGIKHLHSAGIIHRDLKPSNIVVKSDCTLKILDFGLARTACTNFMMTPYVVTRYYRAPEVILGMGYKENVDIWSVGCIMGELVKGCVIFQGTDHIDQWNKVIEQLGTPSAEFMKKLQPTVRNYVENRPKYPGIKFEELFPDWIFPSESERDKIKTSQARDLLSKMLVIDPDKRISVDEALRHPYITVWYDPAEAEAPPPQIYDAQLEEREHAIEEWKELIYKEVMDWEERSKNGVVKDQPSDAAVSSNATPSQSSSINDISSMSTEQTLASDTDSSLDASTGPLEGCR
Mitogen-activated protein kinase 10 (Rattus norvegicus), sequence (P49187 whole entry): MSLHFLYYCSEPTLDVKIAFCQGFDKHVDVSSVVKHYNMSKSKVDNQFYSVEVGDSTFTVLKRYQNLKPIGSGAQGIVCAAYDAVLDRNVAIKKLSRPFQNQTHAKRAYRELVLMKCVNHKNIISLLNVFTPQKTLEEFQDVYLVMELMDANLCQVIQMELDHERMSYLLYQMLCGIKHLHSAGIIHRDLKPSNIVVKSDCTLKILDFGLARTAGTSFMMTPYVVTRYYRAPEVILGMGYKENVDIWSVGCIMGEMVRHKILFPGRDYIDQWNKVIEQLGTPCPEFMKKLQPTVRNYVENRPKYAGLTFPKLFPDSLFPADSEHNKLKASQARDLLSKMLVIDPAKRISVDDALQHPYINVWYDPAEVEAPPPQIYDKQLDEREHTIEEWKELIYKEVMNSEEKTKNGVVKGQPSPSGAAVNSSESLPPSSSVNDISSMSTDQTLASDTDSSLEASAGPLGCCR
Mitogen-activated protein kinase 8, sequence (P45983 whole entry): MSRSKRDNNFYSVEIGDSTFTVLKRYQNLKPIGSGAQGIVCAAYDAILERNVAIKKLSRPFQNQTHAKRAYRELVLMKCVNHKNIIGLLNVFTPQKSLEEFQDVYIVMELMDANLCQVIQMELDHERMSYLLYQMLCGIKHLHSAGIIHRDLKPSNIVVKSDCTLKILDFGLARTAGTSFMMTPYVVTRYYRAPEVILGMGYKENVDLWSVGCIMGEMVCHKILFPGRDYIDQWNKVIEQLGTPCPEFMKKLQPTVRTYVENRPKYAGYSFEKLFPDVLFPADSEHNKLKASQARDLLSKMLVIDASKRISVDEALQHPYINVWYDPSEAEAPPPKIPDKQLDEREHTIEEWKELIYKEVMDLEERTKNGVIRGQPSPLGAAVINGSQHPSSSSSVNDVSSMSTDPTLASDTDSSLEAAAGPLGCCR
Mitogen-activated protein kinase 10, sequence (P53779 whole entry): as the sequence (P49187 whole entry) above, with H27Q, S32Y, V33I, V34A counted along it

SMILES	AUC at 24 h [3] [µg·h/mL]	Activity [4] [%]	Activity [8] [%]	IC50 [9] [µM]	IC50 [11] [µM]	Papp [13] [nm/s]	Cmax [14] [µg/mL]	also measured
N#CCc1cnc(-c2ccc3ccccc3c2)n1-c1ccnc(N[C@H]2CCCN(C(=O)C3CC3)C2)n1	0.392	14.1	–	–	–	–	–	AUC at 24 h [1]: 0.614 µg·h/mL; Cmax [2]: 1.12 µg/mL
O=C(C1CC1)N1CCC[C@H](Nc2nccc(-n3c(-c4ccc5ccccc5c4)nc4c(F)cc(O)cc43)n2)C1	–	59.5	35.2	0.705	0.151	229	0.423	inhibition [5]: Active; IC50 [6]: 0.01 µM; inhibition [7]: Active; inhibition [10]: Active; inhibition [12]: Active; inhibition [15]: Active
CNC(=O)Oc1ccc2nc(-c3ccc4ccccc4c3)n(-c3ccnc(N[C@H]4CCCN(C(=O)C5CC5)C4)n3)c2c1	0.351	34.8	17.2	1.04	0.973	672	0.342	IC50 [6]: 0.053 µM; Activity [16]: 12.57%; AUC(0-t) at 24 h [17]: 0.351 µg·h/mL; Activity [18]: 16.84%; half-life [19]: 39 min; Papp B→A [20]: 113 nm/s; Papp A→B [21]: 49 nm/s; Activity [22]: 21.12%; Tmax [23]: 23.4 min; Activity [24]: 53.46%; Activity [25]: 16.42%; efflux ratio [26]: 2.31; Time [27]: 61.6 s; Activity [28]: 52.7%; Time [29]: 59.3 s
O=C(C1CC1)N1CCC[C@H](Nc2nccc(-n3c(-c4ccc5ccccc5c4)nc4ccc(O)cc43)n2)C1	–	41.2	21.8	0.301	0.125	351	–	AUC at 24 h [1]: 0.349 µg·h/mL; Cmax [2]: 1.51 µg/mL
CC(=O)[C@H]1CC[C@H]2[C@@H]3CCC4=CC(=O)CC[C@]4(C)[C@H]3CC[C@]12C [PROGESTERONE]	–	–	–	–	–	265	–	–
CCNC(=O)Oc1ccc2nc(-c3ccc4ccccc4c3)n(-c3ccnc(N[C@H]4CCCN(C(=O)C5CC5)C4)n3)c2c1	0.26	–	–	–	–	–	0.253	–
CN(C)C(=O)Oc1ccc2nc(-c3ccc4ccccc4c3)n(-c3ccnc(N[C@H]4CCCN(C(=O)C5CC5)C4)n3)c2c1	0.554	–	–	–	–	–	0.483	–
NC(=O)Oc1ccc2nc(-c3ccc4ccccc4c3)n(-c3ccnc(N[C@H]4CCCN(C(=O)C5CC5)C4)n3)c2c1	0.345	–	–	–	–	–	0.277	–
